Test results reported in US20060293386A1, “Method for treating cancer” (priority 2005, published 2006).
Several values for one entry are separate records, joined by “and”; a condition that tells them apart may be missing. Identical values can stand only once. Entries after “also recorded” stand apart in the source; their conditions may differ. Like-named read-outs stand apart in the source and are kept apart here.

How the values were obtained:
[1] = tested on: HCC (hepato cellular carcinoma); assay: Transition of AFP (tumor marker) values in GM-administered HCC patients; type: in vivo; details: for Average AFP value: GM-administered HCC group with abnormal AFP values; for Effect on AFP values (in words): GM-administered HCC patients, 100-300 mg intravenous drip infusion
Text: (§1) AFP (Alpha-fetoprotein) and PIVKA-II (isomer of prothrombin) were used as tumor markers of HCC. […] In general, it is often difficult to determine the shrinkage of cancer lesions by CT scanning or echo imaging immediately after conducting TAE, therefore these markers are used to determine the effects. In Japan, the conventional Alpha-feto Riabeads method has been replaced by the Chemilumi ACS-AFP method since May 2004. The former is a radiation immunoassay whose standard value is ≦20. Meanwhile, the latter is a chemiluminescence immunoassay whose standard value is ≦10.
HCC patients and AFP-positive (precancerous lesions or regenerating hepatocytes) patients without HCC observed on the images ([…] as “GM”) dissolved in 150-300 ml of physiological saline or of 5% glucose by intravenous drip infusion. GM is originally a drug applicable to chronic pancreatitis, acute pancreatitis, and DIC (disseminated intravascular coagulation), however, informed consent was obtained before the administration. And in allergy cases, the starting dose was 75-100 mg and increased. The nonadministered group is GM-nonadministered HCC cases.
In general, AFP and PIVKA-II values are considered to represent cancer viability in hepato cellular carcinoma cases. GM is considered to suppress the viability, since GM suppresses AFP and PIVKA-II values. […]
As described above, GM administration after TAE was conducted 10 days after TAE was completed. And GM was considered effective if suppression was observed 4 months after TAE was completed.

[2] = tested on: HCC (hepato cellular carcinoma); assay: Transition of PIVKA-II (tumor marker) values in GM-administered HCC patients; type: in vivo
Text: as §1
HCC patients and AFP-positive (precancerous lesions or regenerating hepatocytes) patients without HCC observed on the images (on CT or echo exam) were given 100-300 mg of gabexate mesilate (hereinafter referred to as “GM”) dissolved in 150-300 ml of physiological saline or of 5% glucose by intravenous drip infusion. GM is originally a drug applicable to chronic pancreatitis, acute pancreatitis, and DIC (disseminated intravascular coagulation), however, informed consent was obtained before the administration. And in allergy cases, the starting dose was 75-100 mg and increased. The nonadministered group is GM-nonadministered HCC cases.
In general, AFP and PIVKA-II values are considered to represent cancer viability in hepato cellular carcinoma cases. […]

[3] = Side effects of GM among 22 cases; type: in vivo, patients; details: among 22 cases including pancreatic disease cases
Text: Side effects of GM used in the present invention already include shock, anaphylaxis, bleeding tendency, granulocytopenia, fall in blood pressure, elevation of GOT and GPT, facial flushing and the like; among 22 cases including pancreatic disease cases, shock: 0 case, anaphylaxis: 3 cases, bleeding tendency: 0 case, slight granulocytopenia: 22 cases, significant fall in blood pressure: 0 case, elevation of GOT and GPT: 2 cases, and withdrawal: 0.

Structure (SMILES): CCOC(=O)c1ccc(OC(=O)CCCCCN=C(N)N)cc1.CS(=O)(=O)O [GM, gabexate mesilate]
- Maximum AFP value ([1]; 0 M, GM-administered HCC group): 18.9 ng/mL
- Minimum AFP value ([1]; 0 M, GM-administered HCC group): 6.5
- Average AFP value ([1]; 0 M, 7 cases): 11.1 ± 4.8 and 11.1
- AFP value ([1]; 0 M, individual GM-administered HCC patient, Chemilumi ACS-AFP method): 18.9 and 15.5 and 8.1 and 7.2 and 8.5 and 6.5 and 13.0
- Increase and decrease in AFP value, Δ 1 M ([1]; 1 M versus 0 M, individual GM-administered HCC patient): −2.7 and −1.3 and 3.6 and 2.4 and 3.3 and 0.3 and −3.4
- Average difference of AFP from the value at 0M ([1]; 1 M, GM-administered HCC group): 0.3 and 0.3143
- Maximum AFP value ([1]; 1 M, GM-administered HCC group): 19.2 ng/mL
- Minimum AFP value ([1]; 1 M, GM-administered HCC group): 5.4
- Significant difference of AFP versus 0M ([1]; 1 M, GM-administered HCC group): none
- Average AFP value ([1]; 1 M, 7 cases): 11.4 ± 5.1 and 11.4
- AFP value ([1]; 1 M, individual GM-administered HCC patient, Chemilumi ACS-AFP method): 19.2 and 12.1 and 5.4 and 5.9 and 8.9 and 16.3
- Increase and decrease in AFP value, Δ 2 M ([1]; 2 M versus 0 M, individual GM-administered HCC patient): −1.4 and 3.1 and −0.3 and 2.2 and 1.5 and −6.8
- Maximum AFP value ([1]; 2 M, GM-administered HCC group): 20.4 ng/mL
- Minimum AFP value ([1]; 2 M, GM-administered HCC group): 5.8
- Significant difference of AFP versus 0M ([1]; 2 M, GM-administered HCC group): none
- Average AFP value ([1]; 2 M, 6 cases): 11.3 ± 5.7 and 11.3
- AFP value ([1]; 2 M, individual GM-administered HCC patient, Chemilumi ACS-AFP method): 20.4 and 8.7 and 5.8 and 11.6 and 6.2 and 15.2
- Increase and decrease in AFP value, Δ 3 M ([1]; 3 M versus 0 M, individual GM-administered HCC patient): −3 and −3.2 and 5.1 and 0.2 and 3.7 and 4.1 and −9.4
- Maximum AFP value ([1]; 3 M, GM-administered HCC group): 23 ng/mL
- Minimum AFP value ([1]; 3 M, GM-administered HCC group): 4.0
- Significant difference of AFP versus 0M ([1]; 3 M, GM-administered HCC group): none
- Average AFP value ([1]; 3 M, 7 cases): 10.7 ± 7.2 and 10.7
- AFP value ([1]; 3 M, individual GM-administered HCC patient, Chemilumi ACS-AFP method): 23.0 and 6.1 and 5.1 and 4.0 and 13.6 and 6.7 and 16.7
- AFP value ([1]; 3rd case of TABLE 2, 20 mg of GM, when HCC was roughly diagnosed by contrast CT): 8-9
- Current AFP value ([1]; 4th case of TABLE 2, 200 mg of GM after TAE): around 7
- Highest AFP value reached ([1]; 4th case of TABLE 2, GM reduced to 75-100 mg because of allergy, before TAE): up to 70
- Statistical difference of AFP between each month and 0M (in words) ([1]; GM-administered HCC patients of TABLE 2): no significant difference
- Effect on AFP values (in words) [1]: the elevation of AFP values was suppressed; also recorded: elevation of PIVKA-II and AFP values was not observed
- Effect on AFP values (in words) ([1]; listed as gabexate mesilate): dropped, or their elevation was suppressed; also recorded: suppressed the elevation of AFP values for a prolonged period
- Number of times of effective GM administrations after TAE ([1]; cases of TABLE 2, effective if suppression observed 4 months after TAE): 6
- Current AFP value ([1]; first case of TABLE 2, person, GM 200-300 mg with repeated TAE): 9.0
- Number of times of effective GM administrations, single GM administration ([1]; single GM-administered cases including 4 cases with abnormal AFP values of unknown etiology, effective if markers suppressed in one month): 7
- Effect on PIVKA-II values (in words) [2]: elevation of PIVKA-II and AFP values was not observed
- Effect on PIVKA-II values (in words) ([2]; listed as gabexate mesilate): dropped, or their elevation was suppressed
- Side effect: anaphylaxis [3]: 3 cases
- Side effect: bleeding tendency [3]: 0 case
- Side effect: elevation of GOT and GPT [3]: 2 cases
- Side effect: shock [3]: 0 case
- Side effect: significant fall in blood pressure [3]: 0 case
- Side effect: slight granulocytopenia [3]: 22 cases
- Withdrawal [3]: 0
